Results published in patent US11052092B2, “N-{[2-(piperidin-1-yl)phenyl](phenyl)methyl}-2-(3-oxo-3,4-dihydro-2H-1,4-benzoxazin-7-yl)acetamide derivatives and related compounds as ROR-gamma modulators for treating autoimmune diseases” (Genfit, priority 2017, dated 2021).
Structures can show the parent of a compound that is named as a salt.

system: not given; test: not given; details: not given

Row | SMILES | melting point [°C]
1 | Cc1ccc(C(NC(=O)C2(c3ccc4c(c3)CCC4O)CC2)c2ccc(C)o2)c(C)c1 (centres unmarked) (as salt: sodium) [Cpd. 155, N-[(2,4-dimethylphenyl)(5-methylfuran-2-yl)methyl]-1-(1-hydroxy-2,3-dihydro-1H-inden-5-yl)cyclopropane-1-carboxamide] | 58
2 | Cc1ccc(C(NC(=O)C2(c3ccc4c(c3)OCS(=O)(=O)N4)CC2)c2ccc(C)o2)c(C)c1 (centres unmarked) (as salt: HCl) [Cpd. 124, N-[(2,4-dimethylphenyl)(5-methylfuran-2-yl)methyl]-1-(2,2-dioxo-1,3-dihydro-4,2,1-benzoxathiazin-6-yl)cyclopropane-1-carboxamide] | 96
3 | Cc1ccc(C(NC(=O)C2(c3ccc4c(c3)OCO4)CC2)c2ccc(C)o2)c(N2CCCCC2)c1 (centres unmarked) (as salt: HCl) [Cpd. 164, 1-(2H-1,3-benzodioxol-5-yl)-N-{[4-methyl-2-(piperidin-1-yl)phenyl](5-methylfuran-2-yl)methyl}cyclopropane-1-carboxamide] | 51
4 | CCOc1nc2cc(CC(=O)NC(c3ccccc3)c3ccc(C)cc3Br)ccc2[nH]1 (centres unmarked) (as salt: HCl) [Cpd. 90, N-[(2-bromo-4-methylphenyl)(phenyl)methyl]-2-(2-ethoxy-1H-1,3-benzodiazol-5-yl)acetamide] | 189
5 | Cc1ccc(C(NC(=O)C2(c3ccc4c(c3)OCC(=O)N4)CC2)c2cccc(C)n2)c(C)c1 (centres unmarked) (as salt: HCl) [Cpd. 136, N-[(2,4-dimethylphenyl)(6-methylpyridin-2-yl)methyl]-1-(3-oxo-3,4-dihydro-2H-1,4-benzoxazin-7-yl)cyclopropane-1-carboxamide] | 94
6 | CNS(=O)(=O)c1c[nH]c2ccc(CC(=O)NC(c3ccc(C)o3)c3ccc(C)cc3N3CCCCC3)cc12 (centres unmarked) (as salt: HCl) [Cpd. 115, N-{[4-methyl-2-(piperidin-1-yl)phenyl](5-methylfuran-2-yl)methyl}-2-[3-(methylsulfamoyl)-1H-indol-5-yl]acetamide] | 119
7 | Cc1ccc(C(NC(=O)Cc2ccc3c(c2)/C(=N/N)C(=O)N3)c2ccc(C)o2)c(N2CCCCC2)c1 (centres unmarked) (hydrate or solvate) [Cpd. 84, 2-[(3Z)-3-hydrazinylidene-2-oxo-2,3-dihydro-1H-indol-5-yl]-N-{[4-methyl-2-(piperidin-1-yl)phenyl](5-methylfuran-2-yl)methyl}acetamide] | 130
8 | Cc1ccc(C(NC(=O)C2(c3ccc4c(c3)CS(=O)(=O)N4)CC2)c2ccc(C)o2)c(N(C)C)c1 (centres unmarked) (as salt: HCl) [Cpd. 71, N-{[2-(dimethylamino)-4-methylphenyl](5-methylfuran-2-yl)methyl}-1-(2,2-dioxo-1,3-dihydro-2,1-benzothiazol-5-yl)cyclopropane-1-carboxamide] | 107
9 | Cc1ccc(C(NC(=O)Cc2ccc3[nH]c(C)nc3c2)c2ccc(C)o2)c(Br)c1 (centres unmarked) (as salt: HCl) [Cpd. 77, N-[(2-bromo-4-methylphenyl)(5-methylfuran-2-yl)methyl]-2-(2-methyl-1H-1,3-benzodiazol-5-yl)acetamide] | 209
10 | Cc1ccc(C(NC(=O)Cc2ccc3c(c2)CC(=O)N3C)c2ccc(C)o2)c(N2CCCCC2)c1 (centres unmarked) (as salt: HCl) [Cpd. 38, N-{[4-methyl-2-(piperidin-1-yl)phenyl](5-methylfuran-2-yl)methyl}-2-(1-methyl-2-oxo-2,3-dihydro-1H-indol-5-yl)acetamide] | 215
11 | Cc1ccc(C(NC(=O)C2(c3ccc4c(c3)C(=O)C(=O)N4)CC2)c2ccc(C)o2)c(C)c1 (centres unmarked) (as salt: HCl) [Cpd. 125, N-[(2,4-dimethylphenyl)(5-methylfuran-2-yl)methyl]-1-(2,3-dioxo-2,3-dihydro-1H-indol-5-yl)cyclopropane-1-carboxamide] | 192
12 | CCN1c2ccc(C3(C(=O)NC(c4ccc(C)o4)c4ccc(C)cc4C)CC3)cc2CS1(=O)=O (centres unmarked) (as salt: HCl) [Cpd. 132, N-[(2,4-dimethylphenyl)(5-methylfuran-2-yl)methyl]-1-(1-ethyl-2,2-dioxo-1,3-dihydro-2,1-benzothiazol-5-yl)cyclopropane-1-carboxamide] | 68
13 | Cc1ccc(C(NC(=O)Cc2ccc3c(c2)CC(=O)N3)c2ccc(Cl)o2)c(N2CCCCC2)c1 (centres unmarked) (as salt: HCl) [Cpd. 83, N-[(5-chlorofuran-2-yl)[4-methyl-2-(piperidin-1-yl)phenyl]methyl]-2-(2-oxo-2,3-dihydro-1H-indol-5-yl)acetamide] | 105
14 | CC(C)=C1C(=O)Nc2ccc(CC(=O)NC(c3ccc(C)o3)c3ccc(C)cc3N3CCCCC3)cc21 (centres unmarked) (as salt: HCl) [Cpd. 55, N-{[4-methyl-2-(piperidin-1-yl)phenyl](5-methylfuran-2-yl)methyl}-2-[2-oxo-3-(propan-2-ylidene)-2,3-dihydro-1H-indol-5-yl]acetamide] | 172
15 | Cc1ccc(C(NC(=O)C2(c3ccc4c(c3)CS(=O)(=O)N4)CC2)c2ccc(C)o2)c(C)c1 (centres unmarked) (as salt: HCl) [Cpd. 63, N-[(2,4-dimethylphenyl)(5-methylfuran-2-yl)methyl]-1-(2,2-dioxo-1,3-dihydro-2,1-benzothiazol-5-yl)cyclopropane-1-carboxamide] | 97
16 | Cc1ccc(C(NC(=O)Cc2ccc3[nH]cc(C(=O)CS(C)(=O)=O)c3c2)c2ccc(C)o2)c(N2CCCCC2)c1 (centres unmarked) (as salt: HCl) [Cpd. 103, 2-[3-(2-methanesulfonylacetyl)-1H-indol-5-yl]-N-{[4-methyl-2-(piperidin-1-yl)phenyl](5-methylfuran-2-yl)methyl}acetamide] | 139

biological target: T1, human RORγt (Homo sapiens, UniProt P51449); test: RORE Luciferase/RORγt transactivation assay; type: cell-based; details: COS-7 cells transfected with human IL-17 promoter luciferase reporter and RORγt plasmid; 20 h with compound; read-out: IC50, RORγt activity inhibition
T1 construct: the full-length cDNA of human RORγt; expressed in transfected cells; host or cells: COS-7 (monkey kidney)
T1 sequence (P51449 1-497 isoform P51449-2): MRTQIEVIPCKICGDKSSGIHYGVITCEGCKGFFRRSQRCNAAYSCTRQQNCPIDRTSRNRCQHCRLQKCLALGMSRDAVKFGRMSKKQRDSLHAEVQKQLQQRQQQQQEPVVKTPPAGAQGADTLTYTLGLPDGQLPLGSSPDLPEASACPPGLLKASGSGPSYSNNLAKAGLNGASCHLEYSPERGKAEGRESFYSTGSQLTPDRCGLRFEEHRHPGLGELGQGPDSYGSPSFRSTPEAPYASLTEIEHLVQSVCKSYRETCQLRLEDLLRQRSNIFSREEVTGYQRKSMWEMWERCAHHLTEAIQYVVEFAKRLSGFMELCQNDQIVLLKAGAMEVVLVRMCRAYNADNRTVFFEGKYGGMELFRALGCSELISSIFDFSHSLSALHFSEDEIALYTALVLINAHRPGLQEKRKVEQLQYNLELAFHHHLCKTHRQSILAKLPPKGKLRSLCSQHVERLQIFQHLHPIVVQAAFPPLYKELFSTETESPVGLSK
Procedure: It is well known that RORγ binds to a conserved non-coding sequence (CNS) enhancer element in the IL-17 promoter.
Culture medium was changed every 2 days.
The 4.3 Kb human IL-17 promoter containing the RORγ-specific CNS enhancer element was PCR amplified from human genomic DNA and cloned into a pGL3-TKLuc2Cp reporter plasmid.
The luciferase reporter plasmid and the RORγt overexpression plasmid were transfected into COS-7 cell line using 4 μLJetPEI™/μg of DNA. Briefly, 150 ng of DNA (ration ½ between RORE-Tk Luc2Cp and cDNA RORγt or the empty vector for the negative control) was served to transfect adherent COS-7 cells in a […] culture flask, in complete medium (see cos-7 cell line culture).
Cells were then detached (using trypsin) and washed by centrifugation at 300 g for 10 minutes. Cell pellet was resuspended in serum free/phenol red free DMEM and seeded in 384 well plates at a density of 10000 cells/well and then incubated for 4 h at 37° C.
Compounds were dissolved in 100% DMSO to obtain 10 mM stock solutions. For each compound, test concentrations were diluted in serum free/phenol red free DMEM using the Genesis Freedom 200™ (TECAN) and added to the cells to obtain a 0.3% DMSO final concentration (in a final volume of 40 μL per well).
The luciferase activity was then measured with 40 μL/well steady-Glo Luciferase assay system (Promega, Madison, Wis.) and after incubation at room temperature for 30 minutes. The luminescence was estimated using the Ultra384 reader (TECAN). Data were collected and analyzed using GraphPad Prism software (GraphPad Software V5.02, San Diego Calif. USA). IC50 in μM and Emax in % were reported for each compound.

Row | SMILES | IC50 [nM]
17 | Cc1ccc(C(NC(=O)C2(c3ccc4c(c3)OCC(=O)N4)CC2)c2cccc(Cl)c2)c(C)c1 (centres unmarked) [Cpd. 143, N-[(3-chlorophenyl)(2,4-dimethylphenyl)methyl]-1-(3-oxo-3,4-dihydro-2H-1,4-benzoxazin-7-yl)cyclopropane-1-carboxamide] | 10 to 100
18 | Cc1ccc(C(NC(=O)C2(c3ccc4c(ccn4CCC(=O)O)c3)CC2)c2ccc(C)o2)c(N2CCCCC2)c1 (centres unmarked) [Cpd. 154, 3-{5-[1-({[4-methyl-2-(piperidin-1-yl)phenyl](5-methylfuran-2-yl)methyl}carbamoyl)cyclopropyl]-1H-indol-1-yl}propanoic acid] | < 10
19 | Cc1ccc(C(NC(=O)C2(c3ccc4c(c3)OCS(=O)(=O)N4)CC2)c2ccc(Cl)o2)c(C)c1 (centres unmarked) [Cpd. 149, N-[(5-chlorofuran-2-yl)(2,4-dimethylphenyl)methyl]-1-(2,2-dioxo-1,3-dihydro-4,2,1-benzoxathiazin-6-yl)cyclopropane-1-carboxamide] | 10 to 100
20 | Cc1ccc(C(NC(=O)C2(c3ccc4c(c3)CS(=O)(=O)N4CC3CCOCC3)CC2)c2ccc(C)o2)c(Br)c1 (centres unmarked) [Cpd. 163, N-[(2-bromo-4-methylphenyl)(5-methylfuran-2-yl)methyl]-1-[1-(oxan-4-ylmethyl)-2,2-dioxo-1,3-dihydro-2,1-benzothiazol-5-yl]cyclopropane-1-carboxamide] | 10 to 100
21 | COc1ccc(C(NC(=O)Cc2ccc3c(ccn3CCC(=O)OC(C)(C)C)c2)c2ccc(C)o2)c(N2CCCCCC2)c1 (centres unmarked) [Cpd. 110, tert-butyl 3-{5-[({[2-(azepan-1-yl)-4-methoxyphenyl](5-methylfuran-2-yl)methyl}carbamoyl)methyl]-1H-indol-1-yl}propanoate] | 100 to 1000
22 | Cc1ccc(C(NC(=O)Cc2ccc3c(c2)OCS(=O)(=O)N3)c2ccc(C)o2)c(Br)c1 (centres unmarked) [Cpd. 150, N-[(2-bromo-4-methylphenyl)(5-methylfuran-2-yl)methyl]-2-(2,2-dioxo-1,3-dihydro-4,2,1-benzoxathiazin-6-yl)acetamide] | 100 to 1000
23 | Cc1ccc(C(NC(=O)Cc2ccc3c(c2)CS(=O)(=O)N3CC2CCOCC2)c2ccc(C)o2)c(C)c1 (centres unmarked) [Cpd. 166, N-[(2,4-dimethylphenyl)(5-methylfuran-2-yl)methyl]-2-[1-(oxan-4-ylmethyl)-2,2-dioxo-1,3-dihydro-2,1-benzothiazol-5-yl]acetamide] | 10 to 100
